What was measured:
OXPHOS = assay: Pre- and post-treatment biopsies of patients receiving cancer therapies; assay type: in vivo; settings: for Effect of therapy on OXPHOS, post-treatment versus pre-treatment biopsies: across cancers, named as the most significant therapies
From the text: Biopsies were collected from subjects undergoing treatment for cancer (FIG. 1A).

[1] = tested on: Patient derived xenograft cells; assay: Growth of patient derived xenograft cells treated in vitro; assay type: cell-based; settings: in vitro exposure of patient-derived xenograft cells to gemcitabine; FIG. 2
Protocol: Patient derived xenograft cells were treated with the compound of Formula 1, Gemcitabine (Gem), or the compound of Formula 1 and gemcitabine together (FIG. 2). Cells treated with both Gem and Formula 1 grew slower than cells treated with Formula 1 or Gem alone.

SMILES: N.N.O=C([O-])C1(C(=O)[O-])CCC1.[Pt+2] [carboplatin]
- Effect of therapy on OXPHOS, post-treatment versus pre-treatment biopsies (OXPHOS): increase OXPHOS
- OXPHOS following treatment (OXPHOS; breast cancer, endometrial cancer, NSCLC, ovarian cancer, FIG. 1G): increase in OXPHOS

SMILES: O=P1(N(CCCl)CCCl)NCCCO1 (centres unmarked) [cyclophosphamide]
- Effect of therapy on OXPHOS, post-treatment versus pre-treatment biopsies (OXPHOS): increase OXPHOS
- OXPHOS following treatment (OXPHOS; breast cancer and sarcoma, FIG. 1F): increase in OXPHOS

SMILES: COc1cccc2c1C(=O)c1c(O)c3c(c(O)c1C2=O)C[C@@](O)(C(=O)CO)C[C@@H]3O[C@H]1C[C@H](N)[C@H](O)[C@H](C)O1 [doxorubicin]
- Effect of therapy on OXPHOS, post-treatment versus pre-treatment biopsies (OXPHOS): increase OXPHOS
- OXPHOS following treatment (OXPHOS; bladder cancer, breast cancer, sarcoma, FIG. 1H): increase in OXPHOS

SMILES: CNC(=O)c1ccc(N2C(=S)N(c3ccc(C#N)c(C(F)(F)F)c3)C(=O)C2(C)C)cc1F [enzalutamide]
- Effect of therapy on OXPHOS, post-treatment versus pre-treatment biopsies (OXPHOS): increase OXPHOS
- OXPHOS following treatment (OXPHOS; prostate cancer, FIG. 1D): increase in OXPHOS

SMILES: C[C@]12CC[C@@H]3c4ccc(O)cc4C[C@@H](CCCCCCCCC[S+]([O-])CCCC(F)(F)C(F)(F)F)[C@H]3[C@@H]1CC[C@@H]2O (some centres unmarked) [fulvestrant]
- Effect of therapy on OXPHOS, post-treatment versus pre-treatment biopsies (OXPHOS): increase OXPHOS
- OXPHOS following treatment (OXPHOS; breast cancer, FIG. 1E): increase in OXPHOS

SMILES: Nc1ccn([C@@H]2O[C@H](CO)[C@@H](O)C2(F)F)c(=O)n1 [gemcitabine, Gemcitabine]
- Sensitization of tumor cells to the compound of Formula 1 [1]: sensitizes tumor cells to the compound of Formula 1

SMILES: N#Cc1ccc(C(c2ccc(C#N)cc2)n2cncn2)cc1 [letrozole]
- Effect of therapy on OXPHOS, post-treatment versus pre-treatment biopsies (OXPHOS): increase OXPHOS
- OXPHOS following treatment (OXPHOS; breast cancer, FIG. 1E): increase in OXPHOS

SMILES: CCNC(=O)[C@@H]1CCCN1C(=O)[C@H](CCCNC(=N)N)NC(=O)[C@H](CC(C)C)NC(=O)[C@@H](CC(C)C)NC(=O)[C@H](Cc1ccc(O)cc1)NC(=O)[C@H](CO)NC(=O)[C@H](Cc1c[nH]c2ccccc12)NC(=O)[C@H](Cc1c[nH]cn1)NC(=O)[C@@H]1CCC(=O)N1 [leuprolide]
- Effect of therapy on OXPHOS, post-treatment versus pre-treatment biopsies (OXPHOS): increase OXPHOS
- OXPHOS following treatment (OXPHOS; breast cancer and prostate cancer, FIG. 1C): increase in OXPHOS

SMILES: CC(=O)O[C@H]1C(=O)[C@@]2(C)[C@H]([C@H](OC(=O)c3ccccc3)[C@]3(O)C[C@H](OC(=O)[C@H](O)[C@@H](NC(=O)c4ccccc4)c4ccccc4)C(C)=C1C3(C)C)[C@]1(OC(C)=O)CO[C@@H]1C[C@@H]2O [paclitaxel]
- Effect of therapy on OXPHOS, post-treatment versus pre-treatment biopsies (OXPHOS): increase OXPHOS
- OXPHOS following treatment (OXPHOS; breast cancer, endometrial cancer, NSCLC, ovarian cancer, FIG. 1I): increase in OXPHOS

Source: patent publication US20250170096A1, “OXPHOS INHIBITORS FOR USE IN TREATING CANCER” (ImmunoMet Therapeutics, Inc., priority 2022, published 2025)
